As a reminder, the inhibition is the percentage by which the read-out fell short of the control. Usually IC50 stands for the concentration that inhibits the measured activity by half.

The results in this text go back to ChEMBL document CHEMBL4184115, “In vitro and in silico evaluations of diarylpentanoid series as α-glucosidase inhibitor” (Bioorg Med Chem Lett, 2018).

Assay [1] addresses T1, Alpha glucosidase (Homo sapiens, UniProt O43451+P10253+P14410+Q2M2H8). The assay can be described thus: Inhibition of alpha-glucosidase (unknown origin) at 50 uM using 4-Nitrophenyl-alpha-D-glucopyranoside as substrate incubated foe 5 mins followed by substrate addition measured after 15 mins relative to control. The assay is classed as protein assay.
Assay [2] has as its target T1, Alpha glucosidase. Briefly: Inhibition of alpha-glucosidase (unknown origin) using 4-Nitrophenyl-alpha-D-glucopyranoside as substrate incubated foe 5 mins followed by substrate addition measured after 15 mins. The assay is classed as protein assay.

For `COc1cccc(/C=C2\CCC/C(=C\c3ccccc3)C2=O)c1OC`, the inhibition against Alpha glucosidase [1] came out at 31.8%.
Still for that read-out and setting: in the case of `O=C1/C(=C/c2ccccc2)CCC/C1=C\c1ccc(Br)cc1` it was 29.1%.
`O=c1c(O)c(-c2ccc(O)c(O)c2)oc2cc(O)cc(O)c12` [QUERCETIN] returned an IC50 against Alpha glucosidase [2] of 7.8 µM. At Alpha glucosidase [1], the inhibition worked out at 83.6%.
Take `Cc1ccc(/C=C2\CCC/C(=C\c3ccccc3)C2=O)cc1`: on Alpha glucosidase [1], the inhibition amounted to 34.1%.
On the same count and under the same terms, in the case of `O=C1/C(=C/c2ccccc2)CCC/C1=C\c1ccc(F)cc1` it was 34%.
On Alpha glucosidase [2], `O=C(/C=C(O)/C=C/c1ccc(O)cc1O)c1ccccc1O` returned a half-inhibitory concentration (IC50) of 40.7 µM. Further, the inhibition against Alpha glucosidase [1] worked out at 61.2%.
In turn, `O=C1/C(=C/c2ccccc2)CCC/C1=C\c1ccccc1F` had an inhibition at Alpha glucosidase [1] of 43%.
Still for that read-out and setting: for `O=C(C1=C(O)/C(=C/c2cccc(O)c2)CCC1)c1ccccc1` the value was 43.2%.
On to `O=C(/C=C(O)/C=C/c1cccc(O)c1)c1cc(Cl)ccc1O`, for which, on Alpha glucosidase [2], the IC50 was 36.4 µM. The molecule further showed an inhibition at Alpha glucosidase [1] of 62.4%.
In turn, `COc1cc(/C=C2\CCC/C(=C\c3ccccc3)C2=O)cc(OC)c1OC` showed an inhibition against Alpha glucosidase [1] of 16.3%.
Molecule `O=C(/C=C(O)/C=C/c1ccc(O)c(O)c1)c1cc(Cl)ccc1O` came in with an IC50 at Alpha glucosidase [2] of 15.1 µM. For the same molecule, the inhibition on Alpha glucosidase [1] turned out to be 85.6%.
In turn, `O=C(/C=C(O)/C=C/c1ccc(O)c(O)c1)c1ccccc1O` came in with a half-inhibitory concentration (IC50) against Alpha glucosidase [2] of 14.3 µM. This molecule returned an inhibition against Alpha glucosidase [1] of 93.6%.
In turn, `Cc1cccc(/C=C2\CCC/C(=C\c3ccccc3)C2=O)c1` came in with an inhibition against Alpha glucosidase [1] of 47.9%.
Still for that read-out and setting: in the case of `O=C1/C(=C/c2ccccc2)CCC/C1=C\c1ccc(Cl)c(Cl)c1` it was 48.4%.
Take `O=C1/C(=C/c2ccccc2)CCC/C1=C\c1cccc(O)c1`: the concentration for half-maximal inhibition (IC50) against Alpha glucosidase [2] is 28.4 µM. On Alpha glucosidase [1], this molecule had an inhibition of 65.1%.
`O=C(/C=C(O)/C=C/c1ccc(O)cc1)c1cc(Cl)ccc1O`: on Alpha glucosidase [1], the inhibition came out at 45.3%.
`O=C1/C(=C/c2ccccc2)CCC/C1=C\c1ccc(F)c(F)c1` came in with an inhibition against Alpha glucosidase [1] of 37.8%.
The same measure, in the same setting: in the case of `O=C1/C(=C/c2ccccc2)CCC/C1=C\c1ccc(Cl)cc1` it was 27.6%.
`O=C1/C(=C/c2ccccc2)CCC/C1=C\c1cccc(F)c1`: at Alpha glucosidase [1], the inhibition came out at 39.8%.
As to `O=C(C1=C(O)/C(=C/c2ccc(O)c(O)c2)CCC1)c1ccccc1`, the IC50 on Alpha glucosidase [2] is 41 µM. Also, the inhibition against Alpha glucosidase [1] worked out at 55.9%.
Regarding `COc1ccc(/C=C2\CCC/C(=C\c3ccccc3)C2=O)cc1`, the inhibition at Alpha glucosidase [1] worked out at 31.4%.
The same measure, in the same setting: for `O=C1/C(=C/c2ccccc2)CCC/C1=C\c1ccccc1Cl` the value was 43%.
The molecule `O=C1/C(=C/c2ccccc2)CCC/C1=C\c1ccc(O)cc1` returned an IC50 against Alpha glucosidase [2] of 42.3 µM. At Alpha glucosidase [1], the inhibition is 53%.
In the same order, the values of `O=C(/C=C(O)/C=C/c1cc(O)ccc1O)c1cc(O)ccc1O` are 19.6 µM and 96.9%.
Taken in the same sequence, the figures for `O=C1/C(=C/c2ccccc2)CCC/C1=C\c1ccc(O)c(O)c1` were 20.3 µM and 90.7%.
The molecule `O=C(/C=C(O)/C=C/c1ccc(O)cc1)c1ccccc1O` showed an inhibition on Alpha glucosidase [1] of 20.4%.
Same read-out and setting: for `COc1ccc(/C=C2\CCC/C(=C\c3ccccc3)C2=O)c(OC)c1` the value was 41%.
On Alpha glucosidase [2], `O=C(/C=C(O)/C=C/c1ccco1)c1cc(O)ccc1O` came in with an IC50 of 14.1 µM. The inhibition against Alpha glucosidase [1] stood at 98.4%.
Take `O=C(C1=C(O)/C(=C/c2ccc(O)cc2)CCC1)c1ccccc1`: the inhibition on Alpha glucosidase [1] stood at 34.9%.
Take `O=C(/C=C(O)/C=C/c1cc(O)ccc1O)c1ccc(O)cc1O`: the IC50 at Alpha glucosidase [2] was 20 µM. The same molecule displayed an inhibition at Alpha glucosidase [1] of 86.6%.
Turning to `O=C1/C(=C/c2ccccc2)CCC/C1=C\c1cccc(Br)c1`, on Alpha glucosidase [1], the inhibition amounted to 27.2%.
Still for that read-out and setting: in the case of `O=C(/C=C(O)/C=C/c1cccc(O)c1)c1ccccc1O` it was 40.4%; in that of `COc1ccc(OC)c(/C=C2\CCC/C(=C\c3ccccc3)C2=O)c1`, 43.8%.
Regarding `O=C1/C(=C/c2ccccc2)CCC/C1=C\c1ccccc1Br`, on Alpha glucosidase [1], the inhibition stood at 46.8%.
The same measure, in the same setting: for `O=C1/C(=C/c2ccccc2)CCC/C1=C\c1cccc(Cl)c1Cl` the value was 44%.
